From ChEMBL document CHEMBL6182899, “Shooting an Arrow against Convulsion: Novel Triazole-Grafted Benzenesulfonamide Derivatives as Carbonic Anhydrase II and VII Inhibitors” (J Med Chem, 2025)

Species: Mus musculus
Experiment: animal or person
Conditions: 24 h

CCCC(CCC)C(=O)O [VALPROIC ACID]
survival at 100 mg/kg: 80%
